{
  "source": "paper PMC9890698",
  "about": "(BMC Biology, 2023)",
  "key": {"Human P2Y1-R": {"target": "T1, Human P2Y1-R (Homo sapiens, UniProt P47900)", "T1 construct": "expressed in transfected cells; host or cells: HEK293T/17", "T1 sequence (P47900 whole entry)": "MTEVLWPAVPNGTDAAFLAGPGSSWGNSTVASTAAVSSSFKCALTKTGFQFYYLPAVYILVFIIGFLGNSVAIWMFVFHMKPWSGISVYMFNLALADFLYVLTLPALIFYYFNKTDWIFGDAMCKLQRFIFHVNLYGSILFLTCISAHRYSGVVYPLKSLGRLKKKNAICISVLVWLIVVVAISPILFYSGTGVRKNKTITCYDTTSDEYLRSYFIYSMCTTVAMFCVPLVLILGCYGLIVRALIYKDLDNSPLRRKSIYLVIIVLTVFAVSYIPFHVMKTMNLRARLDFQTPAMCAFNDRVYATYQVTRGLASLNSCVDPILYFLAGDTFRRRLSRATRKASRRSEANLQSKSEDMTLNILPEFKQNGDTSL", "experiment": "Gαq protein activation BRET2 assay (Gαq-RLuc8/GFP2-Gγ2/Gβ1) in HEK293T cells expressing P2Y1-R", "assay_type": "cell-based", "conditions": "for G protein signaling, Ligand-modulated BRET (% of maximum MRS2179 mean value): Figure 4a, individual replicates"}, "[1]": {"tested_on": "washed human platelets (P2Y1-R/Gαq signaling)", "experiment": "IP1 accumulation assay (HTRF) in washed human platelets", "assay_type": "cell-based", "conditions": "washed human platelets, ADP 100 μM, antagonists 10 μM, Gq inhibitor 100 nM, 2 h, apyrase 0.02 U/mL, result in words", "summary_of_the_method": "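Washed platelets (3.10^6 per well, pH 7.4 Tyrode's with 1 mM CaCl2, pre-rested with apyrase and 10 μM indomethacin) were exposed to compounds for 30 min or 2 h at 37 °C with 50 mM LiCl. IP1 was measured by HTRF competitive immunoassay (665/620 nm ratio) and converted via standard curve.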"}, "[2]": {"conditions": "G protein signaling, Fig. 4a, 1 min"}},
  "note": "Where “and” joins values, the source holds several entries; their conditions need not be identical. Equal values may be shown once.",
  "data": [
    {"compound": "CNc1nc(Cl)nc2c1ncn2[C@H]1CC(OP(=O)(O)O)[C@]2(COP(=O)(O)O)C[C@H]12", "note": "(stereo in doubt) [MRS2279]", "values": [
      {"measurement": "G protein signaling, Ligand-modulated BRET (% of maximum MRS2179 mean value)", "setting": "Human P2Y1-R; [Ligand] 1.00E-04 M", "value": "129.138 % of maximum MRS2179 mean value and 120.304 % of maximum MRS2179 mean value and 127.2 % of maximum MRS2179 mean value and 111.359 % of maximum MRS2179 mean value and 120.336 % of maximum MRS2179 mean value and 114.718 % of maximum MRS2179 mean value"},
      {"measurement": "G protein signaling, Ligand-modulated BRET (% of maximum MRS2179 mean value)", "setting": "Human P2Y1-R; [Ligand] 1.00E-05 M", "value": "65.0429 % of maximum MRS2179 mean value and 66.0702 % of maximum MRS2179 mean value and 71.1916 % of maximum MRS2179 mean value and 1.991 % of maximum MRS2179 mean value and 5.227 % of maximum MRS2179 mean value and 4.981 % of maximum MRS2179 mean value"},
      {"measurement": "G protein signaling, Ligand-modulated BRET (% of maximum MRS2179 mean value)", "setting": "Human P2Y1-R; [Ligand] 1.00E-06 M", "value": "0.8906 % of maximum MRS2179 mean value and 4.044 % of maximum MRS2179 mean value and 23.8581 % of maximum MRS2179 mean value and -4.504 % of maximum MRS2179 mean value and -0.009097 % of maximum MRS2179 mean value and -7.368 % of maximum MRS2179 mean value"},
      {"measurement": "G protein signaling, Ligand-modulated BRET (% of maximum MRS2179 mean value)", "setting": "Human P2Y1-R; [Ligand] 1.00E-07 M", "value": "-9.195 % of maximum MRS2179 mean value and -17.2152 % of maximum MRS2179 mean value and -1.434 % of maximum MRS2179 mean value and -4.1872 % of maximum MRS2179 mean value and -11.6872 % of maximum MRS2179 mean value and -13.2576 % of maximum MRS2179 mean value"},
      {"measurement": "G protein signaling, Ligand-modulated BRET (% of maximum MRS2179 mean value)", "setting": "Human P2Y1-R; [Ligand] 1.00E-08 M", "value": "-19.0202 % of maximum MRS2179 mean value and -26.9343 % of maximum MRS2179 mean value and -6.222 % of maximum MRS2179 mean value and 4.642 % of maximum MRS2179 mean value and -7.159 % of maximum MRS2179 mean value and -5.465 % of maximum MRS2179 mean value"},
      {"measurement": "G protein signaling, Ligand-modulated BRET (% of maximum MRS2179 mean value)", "setting": "Human P2Y1-R; [Ligand] 1.00E-09 M", "value": "-11.1827 % of maximum MRS2179 mean value and -20.1662 % of maximum MRS2179 mean value and -5.932 % of maximum MRS2179 mean value and 1.161 % of maximum MRS2179 mean value and -4.3372 % of maximum MRS2179 mean value and -8.802 % of maximum MRS2179 mean value"},
      {"measurement": "G protein signaling, Ligand-modulated BRET (% of maximum MRS2179 mean value)", "setting": "Human P2Y1-R; [Ligand] 1.00E-10 M", "value": "-9.413 % of maximum MRS2179 mean value and -16.1844 % of maximum MRS2179 mean value and -3.46 % of maximum MRS2179 mean value and -2.408 % of maximum MRS2179 mean value and -4.624 % of maximum MRS2179 mean value and -8.503 % of maximum MRS2179 mean value"},
      {"measurement": "EC50", "setting": "Human P2Y1-R; [2]", "value": 26.4, "unit": "µM"},
      {"measurement": "pEC50 ± s.e.m.", "setting": "Human P2Y1-R; [2]", "value": "4.579 ± 0.1247"},
      {"measurement": "Emax ± s.e.m.", "setting": "Human P2Y1-R; G protein signaling, Fig. 4a, 1 min, normalized to the mean value of maximal MRS2179 response, in %", "value": "154.3 ± 13.86"},
      {"measurement": "Behaviour on P2Y1-R-dependent constitutive Gαq protein activation", "setting": "Human P2Y1-R; HEK293T cells, result in words", "value": "behaved as inverse agonists"},
      {"measurement": "Effect on IP1 levels", "setting": "[1]", "value": "inverse agonist efficacy"}
    ]}
  ]
}
